Columns and labels:
[1] = target: T1, CD95/PLCγ1 interaction (SH3-PLCg1/CID-CD95) (Homo sapiens, UniProt P19174); assay: Renilla luciferase protein-fragment complementation assay (PCA), SH3-PLCγ1-F1 / CID-CD95-F2; format: cell-based; conditions: luminescence; for IC50: HEK293T cells, exposed 4 h
T1 construct: SH3—PLCγ1-F1 or DD-FADD-F1 (inset) was co-transfected into HEK293T cells; expressed in transfected cells; host or cells: HEK293T
T1 sequence (P19174 791-851): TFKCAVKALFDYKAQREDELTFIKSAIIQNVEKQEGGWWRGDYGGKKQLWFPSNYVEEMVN
Procedure: (§1) A. SH3—PLCγ1-F1 or DD-FADD-F1 (inset) was co-transfected into HEK293T cells along with whole CID-CD95-F2 or DD-CD95-F2 (inset). After 24 h, cells were exposed for 4 h to different compounds according to the invention at different concentrations and luminescence was assessed. The tested compounds were the compounds number 2, 3, 4, 5, 6, 7, 10, 11, 13 and 14.
(§2) F1 corresponds to the N-terminal domain of Renilla luciferase enzyme split into two fragments (F1 and F2, F2 being the C-terminal domain—see Stefan, E. et al. Proc Natl Acad Sci USA 104, 16916-21 (2007)). These F1 and F2 domains were co-expressed in HEK cells, whereupon the interaction between CD95-CID and PLCγ1, or CD95-DD and DD-FADD, allowed protein refolding and subsequent recovery of Renilla luciferase activity.
(§3) CID corresponds to amino acids 175 to 210 of CD95; DD corresponds to amino acids 210 to 303 of CD95.
(§4) Renilla luciferase-based protein-fragment complementation assay (PCA): HEK293T cells were electroporated with 10 μg DNA using a BTM-830 electroporation generator (BTX Instrument Division, Harvard Apparatus). Transfected cells were cultured for 24 h prior to PCA analyses as previously described (Poissonnier, A. et al., Immunity. 2016, 45, 209-223). Briefly, transfected cells (10^6) were washed and resuspended in 100 μL PBS and placed in OptiPlate-96 plates (Perkin-Elmer, Waltham, Mass., USA). Coelenterazine-h (5 μM, Sigma-Aldrich) was added to each well and Renilla luciferase activity was monitored for the first 10 seconds using Infinite200Pro (Tecan, Männedorf, Switzerland).

[2] = target: T2, CD95/FADD interaction (DD-FADD/DD-CD95) (Homo sapiens, UniProt P25445+Q13158); assay: Renilla luciferase protein-fragment complementation assay (PCA), DD-FADD-F1 / DD-CD95-F2; format: cell-based; conditions: luminescence
T2 construct: DD corresponds to amino acids 210 to 303 of CD95; expressed in transfected cells; host or cells: HEK293T
T2 sequence (P25445 226-319 limits assumed): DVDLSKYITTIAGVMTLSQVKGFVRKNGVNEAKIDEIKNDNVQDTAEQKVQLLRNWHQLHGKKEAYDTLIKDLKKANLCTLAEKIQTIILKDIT
T2 sequence (Q13158 97-181 limits assumed): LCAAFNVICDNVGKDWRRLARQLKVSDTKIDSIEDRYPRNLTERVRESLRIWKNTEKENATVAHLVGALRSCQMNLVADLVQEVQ
Procedure: as §1, §2, §3, §4

[3] = tested on: CD95-mediated Ca2+ response in Th17 cells; assay: CD95-mediated Ca2+ response in Th17 cells (FIG. 5); format: cell-based, human; conditions: 1 μM, 1 h pre-incubation, cl-CD95L 100 ng/mL
Procedure: All cells were purchased from ATCC (Molsheim Cedex, France). The T cell lines H9 and CEM were cultured in RPMI supplemented with 8% heat-inactivated FCS (v/v) and 2 mM L-glutamine at 37° C./5% CO2. HEK293T cells were cultured at 37° C./5% CO2 in DMEM supplemented with 8% heat-inactivated FCS and 2 mM L-glutamine. PBMCs were isolated from buffy-coat by density gradient centrifugation on lymphocyte separation medium (Eurobio, Les Ulis, France). Th17 cells (CD4+CCR6+CXCR3−) were sorted from PBMCs using a Th17 Enrichment kit (StemCell Technologies, Grenoble, France). Human umbilical vein endothelial cells (HUVEC) were grown in Endothelial Growth Medium (EGM) supplemented with 2% FCS and EGM-2 Bullet Kit (Lonza, Levallois-Perret, France).
Th17 cells were pre-incubated for 1 h with TAT-control, minCID, or compound 13 (each at 1 μM), and then stimulated with cl-CD95L (100 ng/mL). [Ca^2+]CYT was assessed in Fluo2 LR-AM (2 μM)-loaded cells.

| Compound | IC50 [1] [µM] | IC50 ([2]; HEK293T cells, exposed 4 h) [µM] | also measured |
| --- | --- | --- | --- |
| N=C(N)NCCCCC(=O)N(CCNC(=O)C(Cc1cnc[nH]1)N(CCNC(=O)C(CCCNC(=N)N)N(CCN)C(=O)CCS)C(=O)CCCCCC(N)=O)C(CCCCN)C(N)=O (centres unmarked) [Compound 2] | 315 | 311 |  |
| N=C(N)NCCCCC(=O)N(CCNC(=O)C(Cc1cnc[nH]1)N(CCNC(=O)C(CCCNC(=N)N)N(CCN)C(=O)CCS)C(=O)CCC1CNc2ccccc21)C(CCCCN)C(N)=O (centres unmarked) [Compound 4] | 203 | 245 |  |
| CC(O)C(N)C(=O)NCCN(C(=O)CCS)C(CCCNC(=N)N)C(=O)NCCN(C(=O)CCc1c[nH]c2ccccc12)C(Cc1c[nH]cn1)C(=O)NCCN(C(=O)CCCCNC(=N)N)C(CCCCN)C(N)=O (centres unmarked) [Compound 6] | 356 | 277 |  |
| N=C(N)NCCCCC(=O)N(CCNC(=O)C(N)CS)C(CCCCN)C(=O)NCCN(C(=O)CCc1c[nH]cn1)C(CCCNC(=N)N)C(=O)NCCNC(=O)CCCCCN (centres unmarked) [Compound 10] | 400 | 448 |  |
| CC(O)CC(=O)NC(CS)C(=O)NCCN(C(=O)CCCCNC(=N)N)C(CCCCN)C(=O)NCCN(C(=O)CCc1c[nH]cn1)C(CCCNC(=N)N)C(=O)NCCNC(=O)CCCCCN (centres unmarked) [Compound 11] | 309 | 629 |  |
| CC(O)CC(=O)N(CCN)C(CS)C(=O)NCCN(C(=O)CCCCNC(=N)N)C(CCCCN)C(=O)NCCN(C(=O)CCc1c[nH]cn1)C(CCCNC(=N)N)C(=O)NCCNC(=O)CCCCCN (centres unmarked) [Compound 12] | 229 | 319 |  |
| N=C(N)NCCCCC(=O)N(CCNC(=O)C(Cc1cnc[nH]1)N(CCNC(=O)C(CCCNC(=N)N)N(CCN)C(=O)CCC(N)=O)C(=O)CCCCCN)C(CCCCN)C(N)=O (centres unmarked) [Compound 17] | 343 | 720 |  |
| N=C(N)NCCCC(C(=O)NCCN(C(=O)CCCCCN)C(Cc1cnc[nH]1)C(=O)NCCN(C(=O)CCc1ccc(O)cc1)C(CCCCN)C(N)=O)N(CCN)C(=O)CCS (centres unmarked) [Compound 26] | 655 |  |  |
| N=C(N)NCCCC(C(=O)NCCN(C(=O)CCCCCN)C(Cc1cnc[nH]1)C(=O)NCCN(C(=O)CCc1ccc(N)cc1)C(CCCCN)C(N)=O)N(CCN)C(=O)CCS (centres unmarked) [Compound 27] | 856 |  |  |
| N=C(N)NCCCC(C(=O)NCCN(C(=O)CCCCCN)C(Cc1cnc[nH]1)C(=O)NCCN(C(=O)CCc1c[nH]c2ccccc12)C(CCCCN)C(N)=O)N(CCN)C(=O)CCS (centres unmarked) [Compound 28] | 343 | 2650 |  |
| N=C(N)NCCCCC(=O)N(CCNC(=O)C(Cc1cnc[nH]1)N(CCNC(=O)C(Cc1cccnc1)N(CCN)C(=O)CCS)C(=O)CCCCCN)C(CCCCN)C(N)=O (centres unmarked) [Compound 30] | 907 | 4250 |  |
| minCID: minimum domain of CID required for interaction with PLCγ1; amino acids 182-188 (TCRKHRK) (SEQ ID NO: 1) of human CD95; positive control (minCID corresponding to amino acids 182-188 of human CD95; listed as Homo sapiens) [reference compound] |  |  | disruption of the CD95/PLCγ1 interaction ([1]; HEK cells, 4 h, FIGS. 1A, 1B, 1C): disrupt the CD95/PLCγ1 interaction; effect on the CD95/FADD interaction ([2]; HEK cells, 4 h, FIGS. 1A, 1B, 1C (inset)): without affecting the CD95/FADD interaction; CD95-mediated Ca2+ response in Th17 cells [3]: inhibited |

The remaining compounds from weak to strong by IC50 [1], led by results:

| IC50 [1] [µM] | IC50 ([2]; HEK293T cells, exposed 4 h) [µM] | Compound | also measured |
| --- | --- | --- | --- |
| 196 | 213 | N=C(N)NCCCCC(=O)N(CCNC(=O)C(Cc1cnc[nH]1)N(CCNC(=O)C(CCCNC(=N)N)N(CCN)C(=O)CCS)C(=O)CCc1ccc(O)cc1)C(CCCCN)C(N)=O (centres unmarked) [Compound 5] |  |
| 185 | 246 | N=C(N)NCCCCC(=O)N(CCNC(=O)C(Cc1cnc[nH]1)N(CCNC(=O)C(CCCNC(=N)N)N(CCN)C(=O)CCS)C(=O)CCc1c[nH]c2ccccc12)C(CCCCN)C(N)=O (centres unmarked) [Compound 3] |  |
| 85.5 | 173 | N=C(N)NCCCCC(=O)N(CCNC(=O)C(Cc1cnc[nH]1)N(CCNC(=O)C(Cc1c[nH]c2ccccc12)N(CCN)C(=O)CCS)C(=O)CCCCCN)C(CCCCN)C(N)=O (centres unmarked) [Compound 31] |  |
| 79 | 3930 | N=C(N)NCCCCC(=O)N(CCNC(=O)C(Cc1cnc[nH]1)N(CCNC(=O)C(CCCNC(=N)N)N(CCN)C(=O)CCO)C(=O)CCCCCN)C(CCCCN)C(N)=O (centres unmarked) [Compound 16] |  |
| 78.6 | 325 | CC(O)C(N)C(=O)NCCN(C(=O)CCS)C(Cc1c[nH]c2ccccc12)C(=O)NCCN(C(=O)CCCCCN)C(Cc1cnc[nH]1)C(=O)NCCN(C(=O)CCCCNC(=N)N)C(CCCCN)C(N)=O (centres unmarked) [Compound 7] |  |
| 77.2 |  | CC(O)C(N)C(=O)NCCN(C(=O)CCS)C(CCCNC(=N)N)C(=O)NCCN(C(=O)CCCCCN)C(Cc1cnc[nH]1)C(=O)NCCN(C(=O)CCCCNC(=N)N)C(CCCCN)C(N)=O (centres unmarked) [Compound 13] | IC50 DD-FADD/DD-CD95 ([2]; HEK293T cells, exposed 4 h): ns |
| 75.2 | 3800 | N=C(N)NCCCCC(=O)N(CCNC(=O)C(Cc1cnc[nH]1)N(CCNC(=O)C(CCCNC(=N)N)N(CCN)C(=O)CCS)C(=O)CCCCCN)C(CCCCN)C(N)=O (centres unmarked) [Compound 14] |  |
| 60.9 | 164 | CCC(=O)N(CCN)C(CCCNC(=N)N)C(=O)NCCN(C(=O)CCCCCN)C(Cc1cnc[nH]1)C(=O)NCCN(C(=O)CCCCNC(=N)N)C(CCCCN)C(N)=O (centres unmarked) [Compound 15] |  |
| 34.7 | 33.2 | CCCCCCCCCCCCCCCCCC(=O)N(CCN)C(CCCNC(=N)N)C(=O)NCCN(C(=O)CCCCCN)C(Cc1cnc[nH]1)C(=O)NCCN(C(=O)CCCCNC(=N)N)C(CCCCN)C(N)=O (centres unmarked) [Compound 1] |  |

From US11905253B2, “Compounds and pharmaceutical compositions for reducing CD95-mediated cell motility” (INSTITUT NATIONAL DE LA SANTE ET DE LA RECHERCHE MEDICALE …, priority 2018, dated 2024)
